Legend:
[1] = Evaluation of artificial lipid membrane binding using a Biacore S51 system; details: for Binding Level (RU): compound 50 μM, DOPA liposomes on Sensor Chip L1, 37° C., PBS/5% DMSO (pH 7.4 or pH 6.0); for Judgment: phospholipidosis inducing activity judged from artificial lipid membrane binding
Protocol: Evaluation of Artificial Lipid Membrane Binding using a Biacore S51 (Registered Trademark) System
Using an aspirator, 10 mM of 1,2-dioleoyl-sn-glycero-3-phosphate monosodium salt (hereinafter abbreviated to DOPA) chloroform solution was evaporated to be dryness, and 0.6 mL of PBS/5% dimethyl sulfoxide (hereinafter abbreviated to DMSO) was added thereto. After carrying out thorough suspension by vortex, freezing and thawing were repeated for 5 times. Liposomes were prepared using a liposome preparation device (manufactured by Avestin Inc.) and two syringes and diluted to be 0.5 mM with PBS/5% DMSO just before the immobilization.
Each compound having a final concentration in PBS/5% DMSO of 50 μM was prepared by adding 38 μL of 1× PBS to 2 μL of 10 mM DMSO solution and further adding 360 μL of 1× PBS/5% DMSO and measured.
All of the following analyses were carried out using the Biacore S51 (registered trademark) system, and the measuring conditions were set up by Biacore S51 Control Software.
The measuring temperature was set to be 37° C., and PBS/5% DMSO (pH 7.4 or pH 6.0) was used as the buffer. Series S Sensor Chip L1 was used as the sensor chip. DOPA was immobilized on one of the measuring spots on the sensor surface, and the central spot was used as the reference.
Immobilization of the liposomes was carried out for about 3 minutes at a flow rate of 10 μL/minute, and then each compound was added thereto at a flow rate of 30 μL/minute to measure the interaction. The measuring conditions are as shown in the following.
Assay buffer: PBS/5% DMSO (pH 7.4 or pH 6.0)
Measuring temperature: 37° C.
Sensor chip: Series S Sensor Chip L1
Flow rate: 10 μL/minute at the time of liposome immobilization, 30 μL/minute at the time of interaction measurement
Regeneration: 20 mM CHAPS (3-[(3-cholamidopropyl)dimethylammonio]-1-propanesulfonate), an isopropanol/50 mM aqueous solution of sodium hydroxide=40/60 (volume ratio) mixed solution (60 seconds)
The data treatment was carried out in accordance with the method of Abdiche et al. (Analytical Biochemistry, 328, 233-243 (2004)) using Biacore S51 Evaluation Software.
After correcting infinitesimal error of the concentration of DMSO contained in the sample solution, the value of binding response (RU) obtained by subtracting the value of reference was divided by the sample molecular weight. Additionally, since the thus obtained value is proportional to the capturing amount of liposome, it was divided by the capturing amount at the time of the cycling and multiplied by 10^6 to be used as the correction value (correction value=1000000×RU (compound to be tested)/molecular weight (compound to be tested) RU (liposome)).
By adding propranolol, amiodarone, desipramine, imipramine and procaine as controls, it was confirmed that variation of the binding response is within about 10 to 15%.
Compounds having a binding response value after correction of 100 or more were judged positive.

[2] = target: T1, recombinant human p38α MAP kinase (Homo sapiens, UniProt Q16539); assay: Study on p38α MAP kinase inhibitory activity (ATF2 phosphorylation, Alpha Screen); format: biochemical; details: biotinylated ATF2 substrate, 30° C. for 30 minutes
T1 construct: purchased Upstate Biotechnology #14-251
T1 sequence (Q16539 whole entry): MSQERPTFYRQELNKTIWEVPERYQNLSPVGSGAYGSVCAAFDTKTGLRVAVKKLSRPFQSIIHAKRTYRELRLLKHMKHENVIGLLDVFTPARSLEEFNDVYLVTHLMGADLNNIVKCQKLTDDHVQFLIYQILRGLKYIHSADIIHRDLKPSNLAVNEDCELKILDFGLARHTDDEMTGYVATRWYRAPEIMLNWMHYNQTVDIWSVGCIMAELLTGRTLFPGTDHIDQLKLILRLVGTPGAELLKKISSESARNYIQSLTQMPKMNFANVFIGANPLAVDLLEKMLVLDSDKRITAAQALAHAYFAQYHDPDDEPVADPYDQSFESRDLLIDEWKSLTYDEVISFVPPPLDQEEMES
Protocol: Study on p38α MAP Kinase Inhibitory Activity
Using activating transcription factor-2 (hereinafter abbreviated to ATF2) which is a substrate for p38α MAP kinase, the inhibitory action of the compounds of the present invention was investigated on the phosphorylation by a recombinant human p38α MAP kinase.
A kinase buffer (25 mM Tris-HCl (pH 7.5), 5 mM β-glycerophosphate, 2 mM dithiothreitol, 0.1 mM Na3VO4, 10 mM MgCl2) containing a recombinant human p38α MAP kinase (Upstate Biotechnology #14-251) was added to a 384-well plate (5 μL) (6.25 ng protein/well) for fluorescence measurement. After addition of a kinase buffer (5 μL) containing the compound of the present invention, the resulting mixture was incubated at room temperature for 20 minutes. A substrate mixture (5 μL) of biotinylated ATF2 of 5 μg/mL (Upstate Biotechnology #14-432), adenosine triphosphate (90 μmol/L) (Sigma #FL-AAS) and anti-phosphorylated ATF2 antibody (20-fold dilution) (Cell Signaling Technology #9221L) prepared separately was added thereto, and enzyme reaction was carried out at 30° C. for 30 minutes. After the reaction, Hepes buffer (5 μL) containing 0.25% BSA and 100 mM EDTA was added to stop the enzyme reaction. The amount of a complex of the phosphorylated ATF2 and anti-phosphorylated ATF2 antibody produced by the reaction was measured using an Alpha Screen™ Rabbit Detection kit (Packard #6760607).
The p38α MAP kinase inhibitory activity, which is the effect of the compound of the present invention, was calculated as an inhibition rate (%) according to the following equation: Inhibition rate (%)={(AC−AX)/(AC−AB)}×100
wherein AB is a measured value without addition of the enzyme;
AC is a measured value with addition of the enzyme in the absence of a test compound; and
AX is a measured value with addition of the enzyme in the presence of a test compound.
Inhibition rate of compounds with each concentration was calculated, and a value indicating 50% inhibition (IC50) was determined from the inhibition curve.

Compound | Binding Level (RU) [1] | Judgment [1] | IC50 [2]
CC(C)(O)c1nc(-c2ccc(=O)n(-c3c(F)cccc3F)c2)c(-c2ccc(F)cc2F)o1 [Example 7 (21), 1-(2,6-difluorophenyl)-5-[5-(2,4-difluorophenyl)-2-(1-hydroxy-1-methylethyl)-1,3-oxazol-4-yl]-2(1H)-pyridinone] | 18.3 RU | Negative | 3.5 nM
O=c1ccc(-c2nc(C(O)(CO)CO)oc2-c2ccc(F)cc2F)cn1-c1c(F)cccc1F [Example 7 (39), 1-(2,6-difluorophenyl)-5-{5-(2,4-difluorophenyl)-2-[1,2-dihydroxy-1-(hydroxymethyl)ethyl]-1,3-oxazol-4-yl}-2(1H)-pyridinone] | 11.1 RU | Negative | 2.8 nM
C[C@@](O)(CO)c1nc(-c2ccc(=O)n(-c3c(F)cccc3F)c2)c(-c2ccc(F)cc2F)o1 [Example 167 (1), 1-(2,6-difluorophenyl)-5-{5-(2,4-difluorophenyl)-2-[(1R)-1,2-dihydroxy-1-methylethyl]-1,3-oxazol-4-yl}-2(1H)-pyridinone] | 19.6 RU | Negative | 4.4 nM
C[C@](O)(CO)c1nc(-c2ccc(=O)n(-c3c(F)cccc3F)c2)c(-c2ccc(F)cc2F)o1 [Example 167 (2), 1-(2,6-difluorophenyl)-5-{5-(2,4-difluorophenyl)-2-[(1S)-1,2-dihydroxy-1-methylethyl]-1,3-oxazol-4-yl}-2(1H)-pyridinone] | 22.2 RU | Negative | 3.8 nM
CC(C)(O)[C@H](O)c1nc(-c2ccc(F)cc2F)c(-c2ccc(=O)n(-c3c(F)cccc3F)c2)o1 [Example 206, 1-(2,6-difluorophenyl)-5-{4-(2,4-difluorophenyl)-2-[(1S)-1,2-dihydroxy-2-methylpropyl]-1,3-oxazol-5-yl}-2(1H)-pyridinone] | 14.7 RU | Negative | 3.3 nM
CC(C)(O)[C@@H](O)c1nc(-c2ccc(F)cc2F)c(-c2ccc(=O)n(-c3c(F)cccc3F)c2)o1 [Example 207, 1-(2,6-difluorophenyl)-5-{4-(2,4-difluorophenyl)-2-[(1R)-1,2-dihydroxy-2-methylpropyl]-1,3-oxazol-5-yl}-2(1H)-pyridinone] | 12.8 RU | Negative | 3.7 nM
C[C@@](O)(CO)c1nc(-c2ccc(F)cc2F)c(-c2ccc(=O)n(-c3c(F)cccc3F)c2)o1 [Example 211, 1-(2,6-difluorophenyl)-5-{4-(2,4-difluorophenyl)-2-[(1R)-1,2-dihydroxy-1-methylethyl]-1,3-oxazol-5-yl}-2(1H)-pyridinone] | 11.1 RU | Negative | 5.6 nM
CC(C)(O)Cc1nc(-c2ccc(F)cc2F)c(-c2ccc(=O)n(-c3c(F)cccc3F)c2)o1 [Example 220, 1-(2,6-difluorophenyl)-5-[4-(2,4-difluorophenyl)-2-(2-hydroxy-2-methylpropyl)-1,3-oxazol-5-yl]-2(1H)-pyridinone] | 15.5 RU | Negative | 8 nM
O=c1ccc(-c2oc(C(O)(CO)CO)nc2-c2ccc(F)cc2F)cn1-c1c(F)cccc1F [Example 223, 1-(2,6-difluorophenyl)-5-{4-(2,4-difluorophenyl)-2-[1,2-dihydroxy-1-(hydroxymethyl)ethyl]-1,3-oxazol-5-yl}-2(1H)-pyridinone] | 8.7 RU | Negative | 3.3 nM
CC(C)(O)[C@@H](O)c1nc(-c2ccc(=O)n(-c3c(F)cccc3F)c2)c(-c2ccc(F)cc2F)o1 [Example 227 (1), 1-(2,6-difluorophenyl)-5-{5-(2,4-difluorophenyl)-2-[(1R)-1,2-dihydroxy-2-methylpropyl]-1,3-oxazol-4-yl}-2(1H)-pyridinone] | 21.0 RU | Negative | 4.8 nM
CC(C)(O)[C@H](O)c1nc(-c2ccc(=O)n(-c3c(F)cccc3F)c2)c(-c2ccc(F)cc2F)o1 [Example 227, 1-(2,6-difluorophenyl)-5-{5-(2,4-difluorophenyl)-2-[(1S)-1,2-dihydroxy-2-methylpropyl]-1,3-oxazol-4-yl}-2(1H)-pyridinone] | 22.5 RU | Negative | 3.9 nM

From US7968572B2, “Nitrogen-containing heterocyclic compound and pharmaceutical application thereof” (Ono Pharmaceuticals Co., Ltd., priority 2005, dated 2011)
